From patent US9701670B2, “Pyrazolyl-ureas as kinase inhibitors” (RESPIVERT LIMITED, priority 2013, dated 2017)

Assays:
[1] = tested on: Differentiated U937 cells; test: (l) Cell viability: MTT assay; type: cell-based, human; details: 1 μg/mL
Outline: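 MTT read-out (1 h, absorbance 550 nm) on d-U937 cells after pre-incubation with 1 or 10 μg/mL compound under two regimes: 4 h, 5% FCS, or 24 h, 10% FCS RPMI1640. Values are percent loss of viability relative to vehicle (0.5% DMSO), so increases are reported as negative.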

[2] = target: p38 MAPKα isoform (MAPK14) (Homo sapiens (Human), UniProt Q16539); test: p38 MAPKα enzyme inhibition (FRET, Z-LYTE), Method 1; type: biochemical; details: Method 1 (Table 4a1)
Chain of p38 MAPKα isoform (MAPK14) (Q16539 whole entry, canonical isoform): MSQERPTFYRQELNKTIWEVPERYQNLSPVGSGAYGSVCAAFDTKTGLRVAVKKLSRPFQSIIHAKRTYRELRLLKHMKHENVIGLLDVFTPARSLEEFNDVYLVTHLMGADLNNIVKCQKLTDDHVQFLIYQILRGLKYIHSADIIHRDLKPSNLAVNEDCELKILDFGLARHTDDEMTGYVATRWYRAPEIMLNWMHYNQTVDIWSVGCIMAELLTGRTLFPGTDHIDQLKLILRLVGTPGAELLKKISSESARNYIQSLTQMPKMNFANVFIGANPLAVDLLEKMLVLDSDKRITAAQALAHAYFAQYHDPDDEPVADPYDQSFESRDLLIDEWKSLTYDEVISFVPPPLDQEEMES

| SMILES | IC50 [2] [nM] | Cell viability at time point in d-U937 cells 4 h [1] | Cell viability at time point in d-U937 cells 24 h [1] |
| --- | --- | --- | --- |
| COc1cc(C(=O)NCCN2CCOCC2)ccc1Nc1nccc(Oc2ccc(NC(=O)Nc3cc(C(C)(C)C)nn3-c3ccc(C)cc3)c3ccccc23)n1 [Example 37, 4-((4-((4-(3-(3-(tert-butyl)-1-(p-tolyl)-1H-pyrazol-5-yl)ureido)naphthalen-1-yl)oxy)pyrimidin-2-yl)amino)-3-methoxy-N-(2-morpholinoethyl)benzamide] | 44 | −ve (−ve and +ve indicate that the value is below and above respectively, the no significant effect threshold, defined as 30% inhibition at 1 μg/mL at the time point indicated.) | −ve (−ve and +ve indicate that the value is below and above respectively, the no significant effect threshold, defined as 30% inhibition at 1 μg/mL at the time point indicated.) |
| COc1ccc(-n2nc(C(C)C)cc2NC(=O)Nc2ccc(Oc3ccnc(Nc4ccc(C(=O)NCCN5CCOCC5)cc4OC)n3)c3ccccc23)cc1 [Example 38] | 12 | −ve (−ve and +ve indicate that the value is below and above respectively, the no significant effect threshold, defined as 30% inhibition at 1 μg/mL at the time point indicated.) | −ve (−ve and +ve indicate that the value is below and above respectively, the no significant effect threshold, defined as 30% inhibition at 1 μg/mL at the time point indicated.) |
| COc1cc(C(=O)NCCO)ccc1Nc1nccc(Oc2ccc(NC(=O)Nc3cc(C(C)C)nn3-c3ccc(C)cc3)c3ccccc23)n1 [Example 39, N-(2-hydroxyethyl)-4-((4-((4-(3-(3-isopropyl-1-(p-tolyl)-1H-pyrazol-5-yl)ureido)naphthalen-1-yl)oxy)pyrimidin-2-yl)amino)-3-methoxybenzamide] | 7 | −ve (−ve and +ve indicate that the value is below and above respectively, the no significant effect threshold, defined as 30% inhibition at 1 μg/mL at the time point indicated.) | −ve (−ve and +ve indicate that the value is below and above respectively, the no significant effect threshold, defined as 30% inhibition at 1 μg/mL at the time point indicated.) |
| COc1ccc(-n2nc(C(C)(C)C)cc2NC(=O)Nc2ccc(Oc3ccnc(Nc4cc(OC)cc(C(N)=O)c4)n3)c3ccccc23)cc1 [Example 41, 3-((4-((4-(3-(3-(tert-butyl)-1-(4-methoxyphenyl)-1H-pyrazol-5-yl)ureido)naphthalen-1-yl)oxy)pyrimidin-2-yl)amino)-5-methoxybenzamide] | 50 | −ve (−ve and +ve indicate that the value is below and above respectively, the no significant effect threshold, defined as 30% inhibition at 1 μg/mL at the time point indicated.) | −ve (−ve and +ve indicate that the value is below and above respectively, the no significant effect threshold, defined as 30% inhibition at 1 μg/mL at the time point indicated.) |
| COc1cc(Nc2nccc(Oc3ccc(NC(=O)Nc4cc(C(C)(C)C)nn4-c4ccc(C)cc4)c4ccccc34)n2)cc(C(=O)NCCN(C)C)c1 [Example 43, 3-((4-((4-(3-(3-(tert-butyl)-1-(p-tolyl)-1H-pyrazol-5-yl)ureido)naphthalen-1-yl)oxy)pyrimidin-2-yl)amino)-N-(2-(dimethylamino)ethyl)-5-methoxybenzamide] | 4 | −ve (−ve and +ve indicate that the value is below and above respectively, the no significant effect threshold, defined as 30% inhibition at 1 μg/mL at the time point indicated.) | −ve (−ve and +ve indicate that the value is below and above respectively, the no significant effect threshold, defined as 30% inhibition at 1 μg/mL at the time point indicated.) |
| Cc1ccc(-n2nc(C(C)C)cc2NC(=O)Nc2ccc(Oc3ccnc(Nc4cc(C)cc(C(=O)NCCN5CCOCC5)c4)n3)c3ccccc23)cc1 [Example 44, 3-((4-((4-(3-(3-isopropyl-1-(p-tolyl)-1H-pyrazol-5-yl)ureido)naphthalen-1-yl)oxy)pyrimidin-2-yl)amino)-5-methyl-N-(2-morpholinoethyl)benzamide] | < 1 | −ve (−ve and +ve indicate that the value is below and above respectively, the no significant effect threshold, defined as 30% inhibition at 1 μg/mL at the time point indicated.) | −ve (−ve and +ve indicate that the value is below and above respectively, the no significant effect threshold, defined as 30% inhibition at 1 μg/mL at the time point indicated.) |
| COc1ccc(-n2nc(C(C)C)cc2NC(=O)Nc2ccc(Oc3ccnc(Nc4cc(C(=O)NCCN5CCOCC5)cc(C(F)(F)F)c4)n3)c3ccccc23)cc1 [Example 47] | 10 | −ve (−ve and +ve indicate that the value is below and above respectively, the no significant effect threshold, defined as 30% inhibition at 1 μg/mL at the time point indicated.) | −ve (−ve and +ve indicate that the value is below and above respectively, the no significant effect threshold, defined as 30% inhibition at 1 μg/mL at the time point indicated.) |
| COc1cc(Nc2nccc(Oc3ccc(NC(=O)Nc4cc(C5(C)CC5)nn4-c4ccc(C)cc4)c4ccccc34)n2)cc(C(=O)NCCN2CCOCC2)c1 [Example 51, 3-methoxy-5-((4-((4-(3-(3-(1-methylcyclopropyl)-1-(p-tolyl)-1H-pyrazol-5-yl)ureido)naphthalen-1-yl)oxy)pyrimidin-2-yl)amino)-N-(2-morpholinoethyl)benzamide] | 15 | −ve (−ve and +ve indicate that the value is below and above respectively, the no significant effect threshold, defined as 30% inhibition at 1 μg/mL at the time point indicated.) | −ve (−ve and +ve indicate that the value is below and above respectively, the no significant effect threshold, defined as 30% inhibition at 1 μg/mL at the time point indicated.) |

Further lines, with some results ahead:

| IC50 [2] [nM] | SMILES | Cell viability at time point in d-U937 cells 4 h [1] | Cell viability at time point in d-U937 cells 24 h [1] |
| --- | --- | --- | --- |
| < 1 | COc1ccc(-n2nc(C(C)C)cc2NC(=O)Nc2ccc(Oc3ccnc(Nc4cc(C(=O)NCCO)ccc4OC)n3)c3ccccc23)cc1 [Example 34, N-(2-hydroxyethyl)-3-((4-((4-(3-(3-isopropyl-1-(4-methoxyphenyl)-1H-pyrazol-5-yl)ureido)naphthalen-1-yl)oxy)pyrimidin-2-yl)amino)-4-methoxybenzamide] | +ve (−ve and +ve indicate that the value is below and above respectively, the no significant effect threshold, defined as 30% inhibition at 1 μg/mL at the time point indicated.) | −ve (−ve and +ve indicate that the value is below and above respectively, the no significant effect threshold, defined as 30% inhibition at 1 μg/mL at the time point indicated.) |
| < 1 | COc1cc(C(=O)NCCN(C)C)ccc1Nc1nccc(Oc2ccc(NC(=O)Nc3cc(C(C)C)nn3-c3ccc(C)cc3)c3ccccc23)n1 [Example 35, N-(2-(dimethylamino)ethyl)-4-((4-((4-(3-(3-isopropyl-1-(p-tolyl)-1H-pyrazol-5-yl)ureido)naphthalen-1-yl)oxy)pyrimidin-2-yl)amino)-3-methoxybenzamide] | −ve (−ve and +ve indicate that the value is below and above respectively, the no significant effect threshold, defined as 30% inhibition at 1 μg/mL at the time point indicated.) | −ve (−ve and +ve indicate that the value is below and above respectively, the no significant effect threshold, defined as 30% inhibition at 1 μg/mL at the time point indicated.) |
| 52 | Cc1ccc(-n2nc(C(C)(C)C)cc2NC(=O)Nc2ccc(Oc3ccnc(Nc4cc(C)cc(C(N)=O)c4)n3)c3ccccc23)cc1 [Example 40, 3-((4-((4-(3-(3-(tert-butyl)-1-(p-tolyl)-1H-pyrazol-5-yl)ureido)naphthalen-1-yl)oxy)pyrimidin-2-yl)amino)-5-methylbenzamide] | −ve (−ve and +ve indicate that the value is below and above respectively, the no significant effect threshold, defined as 30% inhibition at 1 μg/mL at the time point indicated.) | −ve (−ve and +ve indicate that the value is below and above respectively, the no significant effect threshold, defined as 30% inhibition at 1 μg/mL at the time point indicated.) |
| 167 | COc1ccc(-n2nc(C(C)(C)C)cc2NC(=O)Nc2ccc(Oc3ccnc(Nc4cc(Br)cc(C(N)=O)c4)n3)c3ccccc23)cc1 [Example 42, 3-bromo-5-((4-((4-(3-(3-(tert-butyl)-1-(4-methoxyphenyl)-1H-pyrazol-5-yl)ureido)naphthalen-1-yl)oxy)pyrimidin-2-yl)amino)benzamide] | −ve (−ve and +ve indicate that the value is below and above respectively, the no significant effect threshold, defined as 30% inhibition at 1 μg/mL at the time point indicated.) | −ve (−ve and +ve indicate that the value is below and above respectively, the no significant effect threshold, defined as 30% inhibition at 1 μg/mL at the time point indicated.) |
| 18 | COc1cc(Nc2nccc(Oc3ccc(NC(=O)Nc4cc(C(F)(F)F)nn4-c4ccc(C)cc4)c4ccccc34)n2)cc(C(=O)NCCN2CCOCC2)c1 [Example 48, 3-methoxy-N-(2-morpholinoethyl)-5-((4-((4-(3-(1-(p-tolyl)-3-(trifluoromethyl)-1H-pyrazol-5-yl)ureido)naphthalen-1-yl)oxy)pyrimidin-2-yl)amino)benzamide] | −ve (−ve and +ve indicate that the value is below and above respectively, the no significant effect threshold, defined as 30% inhibition at 1 μg/mL at the time point indicated.) | −ve (−ve and +ve indicate that the value is below and above respectively, the no significant effect threshold, defined as 30% inhibition at 1 μg/mL at the time point indicated.) |
